Results reported in US9254341B2, “Methods of manufacture of pteroyl-amino acid-fluorescent dyes” (On Target Laboratories, LLC, priority 2013, dated 2016).
Entries after “also recorded” stand apart in the source; their conditions may differ.

Columns and labels:
folate receptors = target: T1, folate receptors (Homo sapiens, UniProt P15328); assay: Competitive binding with [3H] folic acid on KB cells that overexpress FR-alpha; conditions: for Kd: read-out: dissociation constant (Kd); for Relative binding affinity: relative affinity of folic acid=1, molar ratio required to displace 50% of [3H] folic acid
T1 construct: KB cells that overexpress FR-α were seeded in 24-well (100,000 cells/well) Falcon plates; endogenous in cells; host or cells: KB cells (ATCC), grown in folate-free RPMI 1640
T1 sequence (P15328 25-234): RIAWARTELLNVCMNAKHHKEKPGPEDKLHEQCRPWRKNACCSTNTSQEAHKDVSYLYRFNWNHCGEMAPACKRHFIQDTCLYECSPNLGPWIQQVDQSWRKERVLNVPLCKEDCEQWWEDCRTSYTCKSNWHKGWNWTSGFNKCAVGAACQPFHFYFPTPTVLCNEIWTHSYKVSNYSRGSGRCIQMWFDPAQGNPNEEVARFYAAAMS
Experimental: (§1) KB cells (a human nasopharyngeal cell line) were obtained from American type culture collection (Rockville, Md.) and grown as a monolayer using folate free 1640 RPMI medium containing (Gibco, N.Y.) 10% heat-inactivated fetal bovine serum (Atlanta Biological, Ga.) and 1% penicillin streptomycin (Gibco, N.Y.) in a 5% carbon dioxide: 95% air-humidified atmosphere at 37° C. for at least six passages before they were used for the assays.
KB cells that overexpress FR-α were seeded in 24-well (100,000 cells/well) Falcon plates (BD Biosciences, Calif.) and allowed to form monolayers over a period of 12 hours. […] After incubating for 1 hour at 37° C., cells were rinsed with PBS (3×0.5 mL, Gibco, N.Y.) to remove any unbound radioactive materials. After adding 0.25 M sodium hydroxide (0.5 mL) and incubating for 12 hours at 4° C., cells were transferred into individual scintillation vials containing Ecolite scintillation cocktail (3.0 mL, MP Biomedicals, Ohio) and counted in a liquid scintillation analyzer (Packard). The relative binding affinities were calculated using a plot of % cell bound radioactivity versus the log concentration of the test article using GraphPad Prism 4.

[1] = system: ovarian cancer malignant lesions; conditions: human ovarian cancer patients, intra-operative; cited from earlier work
[2] = Stability of OTL-0038 lyophilized product, achiral HPLC; type: physicochemical; conditions: for Achiral HPLC: Lyophilization 5 mg per ml, 2 ml fill, Water, 1 month; for loss of the lyophilized product: 40° C.; for stability of the lyophilized product: first month
Source text: (§2) Stability data of Pte-L Tyrosine-S0456 (OTL-0038):

[3] = system: A549 tumor xenografts (folate receptor negative); assay: Whole body imaging and biodistribution in mice bearing folate receptor-negative tumor xenografts; type: in vivo
Experimental: as §1, with “A549” for “KB”, “alveolar basal epithelial carcinoma” for “human nasopharyngeal”, “using” for “using folate free”
Athymic female nude (nu/nu) mice (6 weeks old, 18-20 g) were purchased from Harlan Laboratories (Indianapolis, Ind.) and maintained on normal diet (Teklad, Wis.). Animals were housed 5/cage in a barrier, pathogen-free cloaked rack. Autoclaved tap water and food were given as needed. The animals were housed in a sterile environment on a standard 12 hours light-dark cycle for the duration of the study. Mice were identified individually by ear punch. All animal procedures were approved by Purdue Animal Care and Use Committee. Animal care and studies were performed according to national and international guidelines for the humane treatment of animals.
Seven-week-old female nu/nu mice were inoculated subcutaneously with A549 cells (1.0×10^6/mouse in RPMI 1640 medium) on the shoulder. Growth of the tumors was measured in perpendicular directions every 2 days using a caliper (body weights were monitored on the same schedule), and the volumes of the tumors were calculated as 0.5×L×W^2(L=longest axis and W=axis perpendicular to L in millimeters). Once tumors reached between 400 and 500 mm^3 in volume, animals (6 mice/group) were intravenously injected with 10 nmol of OTL-0038 in phosphate buffered saline (100 μL). After 2.5 h, animals were sacrificed by CO2 asphyxiation. Whole body imaging (intact tumor) experiments were then performed using a Caliper IVIS Lumina II Imaging Station with Living Image 4.0 software (PerkinElmer Inc, Mass.). Settings for imaging:-lamp level: medium; excitation: 745 nm; emission: ICG (indocyanine green); epi illumination; binning: 4 (M), FOV=12.5; f-stop=2; acquisition time=1 s.
Following whole body imaging, animals were dissected and selected tissues (heart, lung, liver, spleen, kidneys, stomach, small intestine, large intestine, muscle, skin, tumor) were analyzed for fluorescence activity using IVIS imager as before. Settings for imaging:-lamp level: medium; excitation: 745 nm; emission: ICG; epi illumination; binning: 4 (M), FOV=12.5; f-stop=2; acquisition time=1 s.

[4] = Stability of OTL-0038 liquid, achiral HPLC; type: physicochemical; conditions: for Achiral HPLC: Liquid 5 mg per ml, 2 ml fill, PBS, 1 month; for stability of the liquid: 5° C.
Experimental: as §2
At 40° C. the liquid lost 8.6% at 270 nm and 1% at 774 nm. At room temperature the liquid lost about 1.4% at 270 nm and 0.5% at 774 nm.

[5] = system: KB tumor xenografts (folate receptor positive); assay: Whole body imaging and tissue biodistribution in mice bearing folate receptor-positive tumor xenografts; type: in vivo; conditions: nude mice, KB tumors, 10 nmol intravenously, 2.5 hours
Experimental: as §1
(§3) Athymic female nude (nu/nu) mice (5 weeks old, 18-20 g) were purchased from Harlan Laboratories (Indianapolis, Ind.) and maintained on gamma-irradiated folate-deficient special diet (Teklad, Wis.) for at least 2 weeks before the start of the study. […]
(§4) Seven-week-old female nu/nu mice were inoculated subcutaneously with KB cells (1.0×10^6/mouse in folate free RPMI 1640 medium) on the shoulder. Growth of the tumors was measured in perpendicular directions every 2 days using a caliper (body weights were monitored on the same schedule), and the volumes of the tumors were calculated as 0.5×L×W^2 (L=longest axis and W=axis perpendicular to L in millimeters). […]
(§5) Following whole body imaging, animals were dissected and selected tissues (heart, lung, liver, spleen, kidneys, stomach, small intestine, large intestine, muscle, skin, tumor) were analyzed for fluorescence activity using IVIS imager as before. […]

[6] = system: KB tumor xenografts (folate receptor positive); assay: Comparative whole body imaging and tissue biodistribution with folate derived near IR agents; type: in vivo; conditions: nude mice, KB tumors
Experimental: as §1
as §3, with “nude” for “nude (nu/nu)”, “study. Animals were housed 5/cage in a barrier, pathogen-free cloaked rack.” for “study.”
as §4, with “measured In” for “measured in”, “as 0.5×L×[…]” for “as 0.5×L×W^2”
as §5

CC1(C)C(=CC=C2CCCC(C=CC3=[N+](CCCCS(=O)(=O)[O-])c4ccc(S(=O)(=O)O)cc4C3(C)C)=C2Oc2ccc(C[C@@H](NC(=O)c3ccc(NCc4cnc5nc(N)[nH]c(=O)c5n4)cc3)C(=O)O)cc2)N(CCCCS(=O)(=O)O)c2ccc(S(=O)(=O)O)cc21 [OTL-0039, PTE-D-Tyr-S0456]
affinity for folate receptor, comparison in words (folate receptors; KB cells): lower affinity for folate receptor when compared to folic acid and OTL-0038 | Kd (folate receptors): 81.8 nM | Relative binding affinity (folate receptors): 0.09

folate-ethelenediamine-fluorescein isothiocyanate [EC17]
malignant lesions removed with the aid of the dye than without it [1]: ~5 ×

CC1(C)C(=CC=C2CCCC(C=CC3=[N+](CCCCS(=O)(=O)[O-])c4ccc(S(=O)(=O)O)cc4C3(C)C)=C2Oc2ccc(C[C@H](NC(=O)c3ccc(NCc4cnc5nc(N)[nH]c(=O)c5n4)cc3)C(=O)O)cc2)N(CCCCS(=O)(=O)O)c2ccc(S(=O)(=O)O)cc21 [OTL-0038, PTE-L-Tyr-S0456]
Achiral HPLC ([2]; 5, 270 nm): 95.88% | Achiral HPLC ([2]; 5, 774 nm): 94.29% | Achiral HPLC ([2]; 25, 270 nm): 94.43% | Achiral HPLC ([2]; 25, 774 nm): 94.05% | Achiral HPLC ([2]; 40, 270 nm): 87.17% | Achiral HPLC ([2]; 40, 774 nm): 93.56% | Achiral HPLC ([2]; −20, 270 nm): 95.80% | Achiral HPLC ([2]; −20, 774 nm): 94.59% | loss of the lyophilized product ([2]; 270 nm): 4.5% | loss of the lyophilized product ([2]; 774 nm): 1.1% | stability of the lyophilized product ([2]; less than room temperature): stable at less than room temperature for the first month | stability of the lyophilized product ([2]; room temperature): stable at the first month | tumor uptake (ex vivo fluorescence) ([3]; A549 folate receptor negative tumors, 10 nmol, 2.5 h): no fluorescence was observed in folate receptor negative tumors | in vivo specificity for folate receptor ([3]; conclusion of the folate receptor-negative tumor study): highly specific for folate receptor | kidney uptake (ex vivo fluorescence) ([3]; folate receptor-positive kidneys, 10 nmol, 2.5 h): high kidney uptake | Whole body imaging: accumulation of fluorescence ([3]; nude mice, A549 tumors, 10 nmol intravenously, 2.5 h): did not accumulated in the folate receptor negative tumors | Achiral HPLC ([4]; 5, 270 nm): 95.88% | Achiral HPLC ([4]; 5, 774 nm): 94.29% | Achiral HPLC ([4]; 25, 270 nm): 94.43% | Achiral HPLC ([4]; 25, 774 nm): 94.05% | Achiral HPLC ([4]; 40, 270 nm): 87.17% | Achiral HPLC ([4]; 40, 774 nm): 93.56% | Achiral HPLC ([4]; −20, 270 nm): 95.80% | Achiral HPLC ([4]; −20, 774 nm): 94.59% | stability of the liquid ([4]; 270 nm): seems stable | stability of the liquid ([4]; 774 nm): reasonably stable with a small degradation in purity | loss of the liquid ([4]; 40° C., 270 nm): 8.6% | loss of the liquid ([4]; 40° C., 774 nm): 1% | loss of the liquid ([4]; room temperature, 270 nm): about 1.4% | loss of the liquid ([4]; room temperature, 774 nm): 0.5% | Whole body imaging: accumulation of fluorescence [5]: accumulated predominantly in the folate receptor positive tumors, with no substantial fluorescence activity in the other tissues | Tissue biodistribution: fluorescence in dissected tissues ([5]; ex vivo IVIS): highest fluorescence intensity was observed in FR-positive tumors with no accumulation in the other tissues except the kidneys; also recorded: mainly accumulated in folate receptor positive tumor xenografts and kidneys | competition with [3H] folic acid (folate receptors; KB cells): competed well | Kd (folate receptors): 10.4 nM | Relative binding affinity (folate receptors): 0.71 | tumor fluorescence intensity, direct comparison ([6]; 10 nmol): brighter (higher) than the mice treated with the other folate-conjugated near IR dyes | Whole body imaging: accumulation of fluorescence ([6]; 10 nmol intravenously, 2.5 hours): accumulated predominantly in the folate receptor positive tumors
